From publication PMC5569447 (Iranian Journal of Basic Medical Sciences, 2017)
Peptide text beside a SMILES is read from it.

System: Mtb strain H37Rv ATCC 27294
Conditions: 24 h

## NC(=O)CC[C@H](NC(=O)[C@@H]1CCCN1C(=O)[C@@H]1CCCN1)C(=O)O [PPQ] (H-Pro-Pro-Gln-OH)
  MABA MIC: >800 µM
